Results: patent US20230139056A1, “METHODS, COMPOSITIONS AND REAGENTS FOR PREPARING COMPOUNDS” (Regents of the University of Minnesota, priority 2021, published 2023)

Biological target: T1, SyrB2 halogenase (Pseudomonas syringae pv. syringae, UniProt Q9RBY6)
T1 construct: His-tag (inferred from the pET-28a(+) vector and Ni HisTrap purification); made in house; host or cells: E. coli BL21-Gold (DE3)
Experiment: Fluorination assay of Thr by SyrB2 halogenase with ligator (LC-MS/MS)
Format: biochemical
Protocol: In an anaerobic glovebag (98% N2/2% H2, Coy Laboratories), all plasticware, solutions, and solids were allowed to equilibrate overnight before use. Stock solutions of RXN buffer (20 mM HEPES, pH=7.5), 20G (100 mM in RXN buffer, pH=7.5), NOG (150 mM in RXN buffer, pH=7.5), and Milli-Q water were degassed using a vacuum manifold on a Schlenk Line apparatus. At least three cycles of vacuum and subsequent equilibration with Argon gas were performed before transfer to the glovebag. Halide Salts (NaCl, NaF) and ferrous ammonium sulfate (FAS) were transferred to the glovebag the day before use.
Stock SyrB1-PPT-Thr and SyrB2 were thawed on ice-water and centrifuged to remove any possible precipitate. Stock proteins were diluted in RXN buffer and transferred to individual ReactiVials (Thermo) sealed with septa on a pre-cooled ReactiBlock (Thermo). Protein was deoxygenated by piercing the ReactiVials with needles and purging the headspace with a continuous flow of Argon gas for 1 hr while continuously stirring the protein solution on ice bath. Reactivials were sealed and transferred to the glovebag. While deoxygenating the protein, halide salts were dissolved in RXN buffer in the glovebag. To individual 1.7 mL tubes, RXN buffer, ligand (NOG or 2OG), and halide (NaCl or NaF) were added and cooled to 4° C. The ReactiVials containing the proteins were sealed and transferred to the glovebag. […]

T1 sequence (Q9RBY6 whole entry): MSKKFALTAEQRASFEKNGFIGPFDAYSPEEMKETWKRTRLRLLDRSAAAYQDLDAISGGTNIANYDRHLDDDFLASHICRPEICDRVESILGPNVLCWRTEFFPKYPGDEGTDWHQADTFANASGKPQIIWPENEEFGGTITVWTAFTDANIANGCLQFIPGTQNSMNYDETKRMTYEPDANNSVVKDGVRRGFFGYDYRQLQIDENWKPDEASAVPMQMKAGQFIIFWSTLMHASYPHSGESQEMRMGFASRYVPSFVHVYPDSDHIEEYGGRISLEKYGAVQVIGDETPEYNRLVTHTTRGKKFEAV

Compound: O=C(O)CNC(=O)C(=O)O [NOG, N-oxalylglycine]
- side products (hydroxylated substrates) observed (in some of the reaction conditions with ligator): little to no side products
- fluorination of Thr amino acid by SyrB2 halogenase (ligator 1 mM, NaF 10 mM, LC-MS/MS (FIG. 3)): enabling fluorination of Thr amino acid
